Converted amounts (≈) assume the structure as drawn.
B1: Mitogen-activated protein kinase kinase kinase 5 (Homo sapiens), Q99683 (protein)
chain: MSTEADEGITFSVPPFAPSGFCTIPEGGICRRGGAAAVGEGEEHQLPPPPPGSFWNVESAAAPGIGCPAATSSSSATRGRGSSVGGGSRRTTVAYVINEASQGQLVVAESEALQSLREACETVGATLETLHFGKLDFGETTVLDRFYNADIAVVEMSDAFRQPSLFYHLGVRESFSMANNIILYCDTNSDSLQSLKEIICQKNTMCTGNYTFVPYMITPHNKVYCCDSSFMKGLTELMQPNFELLLGPICLPLVDRFIQLLKVAQASSSQYFRESILNDIRKARNLYTGKELAAELARIRQRVDNIEVLTADIVINLLLSYRDIQDYDSIVKLVETLEKLPTFDLASHHHVKFHYAFALNRRNLPGDRAKALDIMIPMVQSEGQVASDMYCLVGRIYKDMFLDSNFTDTESRDHGASWFKKAFESEPTLQSGINYAVLLLAAGHQFESSFELRKVGVKLSSLLGKKGNLEKLQSYWEVGFFLGASVLANDHMRVIQASEKLFKLKTPAWYLKSIVETILIYKHFVKLTTEQPVAKQELVDFWMDFLVEATKTDVTVVRFPVLILEPTKIYQPSYLSINNEVEEKTISIWHVLPDDKKGIHEWNFSASSVRGVSISKFEERCCFLYVLHNSDDFQIYFCTELHCKKFFEMVNTITEEKGRSTEEGDCESDLLEYDYEYDENGDRVVLGKGTYGIVYAGRDLSNQVRIAIKEIPERDSRYSQPLHEEIALHKHLKHKNIVQYLGSFSENGFIKIFMEQVPGGSLSALLRSKWGPLKDNEQTIGFYTKQILEGLKYLHDNQIVHRDIKGDNVLINTYSGVLKISDFGTSKRLAGINPCTETFTGTLQYMAPEIIDKGPRGYGKAADIWSLGCTIIEMATGKPPFYELGEPQAAMFKVGMFKVHPEIPESMSAEAKAFILKCFEPDPDKRACANDLLVDEFLKVSSKKKKTQPKLSALSAGSNEYLRSISLPVPVLVEDTSSSSEYGSVSPDTELKVDPFSFKTRAKSCGERDVKGIRTLFLGIPDENFEDHSAPPSPEEKDSGFFMLRKDSERRATLHRILTEDQDKIVRNLMESLAQGAEEPKLKWEHITTLIASLREFVRSTDRKIIATTLSKLKLELDFDSHGISQVQVVLFGFQDAVNKVLRNHNIKPHWMFALDSIIRKAVQTAITILVPELRPHFSLASESDTADQEDLDVEDDHEEQPSNQTVRRPQAVIEDAVATSGVSTLSSTVSHDSQSAHRSLNVQLGRMKIETNRLLEELVRKEKELQALLHRAIEEKDQEIKHLKLKSQPIEIPELPVFHLNSSGTNTEDSELTDWLRVNGADEDTISRFLAEDYTLLDVLYYVTRDDLKCLRLRGGMLCTLWKAIIDFRNKQT

Key:
[1] = molecular target: T1, Mitogen-activated protein kinase kinase kinase 5 (Homo sapiens, UniProt Q99683); assay: Inhibition of stress-activated full length recombinant human N-terminal GST-tagged ASK1 expressed in baculovirus expression system using MKK6 as substrate pretreated for 10 mins followed by substrate addition by Alphascreen assay
T1 sequence (Q99683 whole entry): B1 chain

[2] = molecular target: CYP2D6 (Homo sapiens, UniProt P10635); assay: Inhibition of CYP2D6 (unknown origin) at 10 uM relative to control; type: ADME
CYP2D6, sequence (P10635 whole entry): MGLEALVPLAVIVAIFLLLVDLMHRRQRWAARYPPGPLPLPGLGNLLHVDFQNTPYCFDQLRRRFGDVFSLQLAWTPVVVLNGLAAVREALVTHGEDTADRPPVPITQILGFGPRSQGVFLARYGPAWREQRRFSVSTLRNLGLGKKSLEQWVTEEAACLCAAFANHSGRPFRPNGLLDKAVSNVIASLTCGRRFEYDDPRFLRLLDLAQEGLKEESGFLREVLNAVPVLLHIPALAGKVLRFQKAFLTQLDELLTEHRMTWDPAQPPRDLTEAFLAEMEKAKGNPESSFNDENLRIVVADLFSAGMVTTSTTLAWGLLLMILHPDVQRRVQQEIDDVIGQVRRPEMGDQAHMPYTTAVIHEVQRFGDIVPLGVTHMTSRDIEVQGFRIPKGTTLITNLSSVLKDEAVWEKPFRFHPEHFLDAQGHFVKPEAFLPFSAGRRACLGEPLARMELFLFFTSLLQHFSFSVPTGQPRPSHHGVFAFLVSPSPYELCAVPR

[3] = Solubility of the compound in phosphate buffered saline at pH 7.4; type: physicochemical; details: buffer
[4] = Stability in mouse liver microsomes; type: ADME, microsome; details: read-out: Stability
[5] = molecular target: CYP3A4 (Homo sapiens, UniProt P08684); assay: Inhibition of CYP3A4 (unknown origin) at 10 uM relative to control; type: ADME
CYP3A4, sequence (P08684 whole entry): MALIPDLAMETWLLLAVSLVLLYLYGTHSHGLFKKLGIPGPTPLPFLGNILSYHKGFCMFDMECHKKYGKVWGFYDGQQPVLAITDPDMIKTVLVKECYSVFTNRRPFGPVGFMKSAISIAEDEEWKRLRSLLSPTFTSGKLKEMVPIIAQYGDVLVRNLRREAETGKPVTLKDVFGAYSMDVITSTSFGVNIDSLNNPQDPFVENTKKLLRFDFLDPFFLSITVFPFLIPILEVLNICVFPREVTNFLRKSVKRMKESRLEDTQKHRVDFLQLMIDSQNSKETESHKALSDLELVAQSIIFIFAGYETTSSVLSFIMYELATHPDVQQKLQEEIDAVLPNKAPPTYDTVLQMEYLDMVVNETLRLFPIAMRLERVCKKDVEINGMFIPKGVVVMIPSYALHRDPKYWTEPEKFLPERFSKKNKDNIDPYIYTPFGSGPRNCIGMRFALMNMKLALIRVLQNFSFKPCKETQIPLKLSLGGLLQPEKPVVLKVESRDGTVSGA

[6] = Stability in human liver microsomes; type: ADME, microsome; details: read-out: Stability
[7] = molecular target: CYP2C9 (Homo sapiens, UniProt P11712); assay: Inhibition of CYP2C9 (unknown origin) at 10 uM relative to control; type: ADME
CYP2C9, sequence (P11712 whole entry): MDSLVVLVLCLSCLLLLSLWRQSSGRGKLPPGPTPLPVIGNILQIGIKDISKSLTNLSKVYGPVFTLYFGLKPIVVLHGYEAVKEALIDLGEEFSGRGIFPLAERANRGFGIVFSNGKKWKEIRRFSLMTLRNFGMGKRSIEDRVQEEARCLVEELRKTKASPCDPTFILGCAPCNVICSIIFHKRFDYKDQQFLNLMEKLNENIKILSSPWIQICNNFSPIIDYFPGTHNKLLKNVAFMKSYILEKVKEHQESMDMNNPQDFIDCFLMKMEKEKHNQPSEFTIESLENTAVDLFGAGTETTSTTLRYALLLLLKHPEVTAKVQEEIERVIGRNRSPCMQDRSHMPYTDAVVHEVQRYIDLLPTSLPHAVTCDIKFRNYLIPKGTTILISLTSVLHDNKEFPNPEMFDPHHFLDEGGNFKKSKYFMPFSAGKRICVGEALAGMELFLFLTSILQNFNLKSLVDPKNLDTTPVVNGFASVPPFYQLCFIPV

[8] = Stability in rat liver microsomes; type: ADME, microsome; details: read-out: Stability
[9] = molecular target: T2, CYP1A2 (Homo sapiens, UniProt P05177); assay: Inhibition of CYP1A2 (unknown origin) at 10 uM relative to control; type: ADME
T2 sequence (P05177 whole entry): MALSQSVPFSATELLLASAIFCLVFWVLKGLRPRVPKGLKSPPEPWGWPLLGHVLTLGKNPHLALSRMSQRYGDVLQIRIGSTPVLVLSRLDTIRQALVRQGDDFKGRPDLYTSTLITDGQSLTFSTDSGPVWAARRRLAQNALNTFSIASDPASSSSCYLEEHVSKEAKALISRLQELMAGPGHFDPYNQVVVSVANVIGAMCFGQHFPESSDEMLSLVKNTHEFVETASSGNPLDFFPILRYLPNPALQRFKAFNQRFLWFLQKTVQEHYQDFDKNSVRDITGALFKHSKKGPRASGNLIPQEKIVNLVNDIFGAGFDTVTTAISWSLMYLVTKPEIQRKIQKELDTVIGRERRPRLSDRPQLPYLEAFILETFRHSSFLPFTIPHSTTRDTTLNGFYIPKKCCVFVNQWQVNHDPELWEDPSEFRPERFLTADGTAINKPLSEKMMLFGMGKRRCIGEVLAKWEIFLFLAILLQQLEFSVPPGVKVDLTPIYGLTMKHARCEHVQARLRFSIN

[10] = compound: CC(=O)Nc1cccc(Nc2ncc3ccccc3n2)c1; assay: ATP-competitive inhibition of full length recombinant human N-terminal GST-tagged ASK1 expressed in baculovirus expression system assessed as Km for substrate at 1 uM using MKK6 as substrate by Lineweaver-burk plot analysis (reference value: 6.08 +/- 0.4093 10^-6 M)
[11] = compound: CC(=O)Nc1cccc(Nc2ncc3ccccc3n2)c1; assay: ATP-competitive inhibition of full length recombinant human N-terminal GST-tagged ASK1 expressed in baculovirus expression system assessed as Km for substrate at 0.5 uM using MKK6 as substrate by Lineweaver-burk plot analysis (reference value: 6.08 +/- 0.4093 10^-6 M)
[12] = compound: CC(=O)Nc1cccc(Nc2ncc3ccccc3n2)c1; assay: ATP-competitive inhibition of full length recombinant human N-terminal GST-tagged ASK1 expressed in baculovirus expression system assessed as Km for substrate at 2 uM using MKK6 as substrate by Lineweaver-burk plot analysis (reference value: 6.08 +/- 0.4093 10^-6 M)

Row | Molecule | IC50 [1] [µM] | also measured
1 | c1ccc(Nc2ncc3ccccc3n2)cc1 | > 10 | –
2 | Nc1cccc(-c2ccc3nc(Nc4ccccc4)ncc3c2)c1 | > 10 | –
3 | c1ccc(Nc2ncc3cc(-c4cn[nH]c4)ccc3n2)cc1 | > 10 | –
4 | c1ccc(Nc2ncnc3nc[nH]c23)cc1 | > 10 | –
5 | CC(=O)Nc1cccc(Nc2ncc3cc(-c4cccc(N)c4)ccc3n2)c1 | > 10 | –
6 | CN(C)c1cccc(Nc2ncnc3[nH]cnc23)c1 | > 10 | –
7 | CC(=O)Nc1cccc(Nc2ncc3cc(-c4cn[nH]c4)ccc3n2)c1 | 0.2 | inhibition at 10 µM [2]: 52%; solubility [3]: 10 µM (≈ 3.44 µg/mL); half-life [4]: 2 min; inhibition at 10 µM [5]: 88%; half-life [6]: 42 min; inhibition at 10 µM [7]: 98%; half-life [8]: 4 min; inhibition at 10 µM [9]: 49%
8 | CC(=O)Nc1cccc(Nc2ncnc3[nH]cnc23)c1 | > 10 | –
9 | Nc1cccc(Nc2ncc3cc(-c4cccc(N)c4)ccc3n2)c1 | > 10 | –
10 | Brc1ccc2nc(Nc3ccccc3)ncc2c1 | > 10 | –
11 | Nc1cccc(Nc2ncc3cc(-c4cn[nH]c4)ccc3n2)c1 | 0.6 | inhibition at 10 µM [2]: 56%; solubility [3]: 17 µM (≈ 5.14 µg/mL); half-life [4]: 2 min; inhibition at 10 µM [5]: 52%; half-life [6]: 29 min; inhibition at 10 µM [7]: 93%; half-life [8]: 3 min; inhibition at 10 µM [9]: 67%
12 | Cn1cc(-c2ccc3nc(Nc4ccccc4)ncc3c2)cn1 | > 10 | –
13 | Cn1cc(-c2ccc3nc(Nc4cccc(N)c4)ncc3c2)cn1 | > 10 | –
14 | Nc1cccc(Nc2ncc3cc(Br)ccc3n2)c1 | > 10 | –
15 | Fc1ccc(Nc2ncc3ccccc3n2)cc1 | > 10 | –
16 | CC(=O)Nc1cccc(Nc2ncc3cc(Br)ccc3n2)c1 | > 10 | –
17 | Fc1ccc(Nc2ncnc3[nH]cnc23)cc1 | > 10 | –
18 | CN(C)c1cccc(Nc2nccc(NCCOc3ccccc3)n2)c1 | 2 | –
19 | CC(=O)Nc1cccc(Nc2ncc3cc(-c4cnn(C)c4)ccc3n2)c1 | > 10 | –
20 | Fc1ccc(Nc2ncc3cc(Br)ccc3n2)cc1 | > 10 | –
21 | Nc1cccc(Nc2ncc3ccccc3n2)c1 | > 10 | –
22 | CC(C)(C)C(=O)N(c1ccccc1)c1cccc(Nc2ncc3cc(Br)ccc3n2)c1 | > 10 | –
23 | Cn1cc(-c2ccc3nc(Nc4cccc(N(C(=O)C(C)(C)C)c5ccccc5)c4)ncc3c2)cn1 | > 10 | –
24 | Clc1cccc(Nc2ncnc3[nH]cnc23)c1 | > 10 | –
25 | Clc1cccc(Nc2ncc3ccccc3n2)c1 | > 10 | –
26 | CC(C)(C)C(=O)N(c1ccccc1)c1cccc(Nc2ncc3cc(-c4cn[nH]c4)ccc3n2)c1 | > 10 | –
27 | B1 | – | Km [10]: 7.79 µM; Km [11]: 7.01 µM; Km [12]: 9.3 µM
